Measurements published in patent US10265294B2, “Compositions and methods for treating epithelial cancer” (YALE UNIVERSITY, priority 2016, dated 2019).

Legend:
Type in all cases: cell-based, human
OCSC2 spheroids = assay: 3D spheroid integrity by kinetic imaging; conditions: compared to the control; dose-dependent
Description: (§1) CD44+/MyD88+ ovarian cancer stem cell clones (OCSC1 and OCSC2) and CD44−/MyD88− ovarian cancer cells (OCC1 and OCC2) were isolated from either tumor tissue or ascites obtained from patients diagnosed with stage III/IV serous ovarian cancer and propagated (Alvero, et al., 2009, Cell Cycle 8:158-166; Chefetz, et al., 2013, Cell Cycle 12:511-521). The epithelial nature of the isolated cells was determined by immunostaining for Ck18. Purity of the cultures based on CD44 expression by flow cytometry and chemoresistance were routinely tested. Stable expression of nuclear-restricted red fluorescent (in OCSCs) or green fluorescent proteins (in OCCs) was performed by transduction using NUCLIGHT® Red or Green Lentivirus Reagent (Essen Bioscience, Ann Arbor, Mich.). Spheroids were formed from OCSCs by culturing in ultra-low attachment multi-well plates (Corning, Inc., Corning, N.Y.).
Spheroids represent a 3D in vitro tumor model of multiple cell layers that mimic tumors in vivo. In ovarian cancer, spheroid cultures not only mimic ovarian solid tumors, but also ovarian cancer cells found in malignant ascites. Spheroid cultures allow one to test the capacity of compounds to diffuse through multiple layers of cells and induce cell death. It further allows one to test the efficacy of treatment against the mesenchymal cancer subtype. […]

[1] = tested on: OCSCs (CD44+/MyD88+ ovarian cancer stem cells); assay: OCSC growth, morphology, RFP+ cell count and Celltox cell death (kinetic live cell imaging)
Description: as §1
Effect of each compound on cell morphology, growth, and viability was assessed using a kinetic live cell imaging system (Incucyte, Essen Bioscience). Proliferation was calculated as previously described (Alvero, et al., 2011, Mol. Cancer Ther. 10:1385-1393) using metrics from either confluence or fluorescent count from nuclear-restricted RFP or GFP. Cell death was quantified; similarly CELLTOX® Green Cytotoxicity Assay (Promega, Madison, Wis.). IC50 was calculated as described using GraphPad Prism (GraphPad Software Inc., LaJolla, Calif.).
In vitro, conventional chemotherapeutic drugs had negligible effect on OCSC growth even in the μM range (FIG. 1B).
TRX-E-002 exists as a racemic mixture comprised of two enantiomers, enantiomer A (TRX-E-002-1) and enantiomer B (TRX-E-002-2). Thus, the enantiomers were separated and assessed separately. To distinguish between an analog's cytostatic or cytotoxic activity, OCSC clones that are stably transfected with nuclear-restricted RFP were used, which allows an accurate quantification of the number of cells and can be multiplexed with CELLTOX® assay to concomitantly measure the number of dead cells.

cleaved/active caspase-3 = assay: Western blot for cleaved caspase-3 in OCSC transfected with scramble or c-Jun siRNA; conditions: 2.45 μM for 2 hours then recovery
Description: SDS-PAGE and Western blots were performed using 20 μg of total protein lysate as described in Kamsteeg, et al., 2003, Oncogene 22:2611-2620. Antibodies used were: mouse anti-phospho ERK (Santa Cruz Biotechnology, Inc., Dallas, Tex.); rabbit anti-phospho c-Jun, rabbit anti c-Jun, rabbit anti-ERK, rabbit anti-cleaved caspase 3 all from Cell Signaling Technology, Danvers, Mass.; and mouse anti-GAPDH (Sigma-Aldrich).
To determine the requirement for c-Jun activation in TRX-E-002-1-induced apoptosis, siRNA was used to knock-down c-Jun in chemoresistant OCSC. […] This upregulation was maintained, even when treatment was removed and cells were allowed to recover (FIG. 5C).

caspase-9 = assay: Caspase Glo assay, caspase-9; conditions: 0.245 μM; at 16 and 24 h post treatment
Description: (§2) Total protein was extracted and measured as described in Kamsteeg, et al., 2003, Oncogene 22:2611-2620. Activity of caspase 3/7 and caspase 9 was quantified using Caspase Glo assay (Promega).
(§3) The activities of caspase-3/7 and caspase-9 were assessed at 2, 4, 6, 8, 16, and 24 hours post-treatment with TRX-E-002-1.

caspase-3/7 = assay: Caspase Glo assay, caspase-3/7; conditions: 0.245 μM; at 16 and 24 h post treatment
Description: as §2, §3

[2] = tested on: chemoresistant ovarian cancer stem cells; assay: OCSC growth and morphology with TRX-E-002-1, AICAR or the combination
Description: The effect of each compound on cell growth was assessed using a kinetic live cell imagine system (Incucyte, Essen Bioscience). Proliferation was determined based on either confluence or fluorescent count from nuclear-restricted RFP or GFP. The IC50 values were calculated using GraphPad Prism (GraphPad Software Inc., LaJolla, Calif.). […]

COc1cc(C2COc3c(ccc(O)c3C)C2c2ccc(O)cc2)cc(OC)c1O (single isomer, unassigned) [TRX-E-002-1]
amount of intact spheroids (OCSC2 spheroids): significantly decreased
number of nuclear RFP+ cells ([1]; RFP OCSC clones, TRX-E-002-1 beginning at the 0.245 μM dose, TRX-E-002-2 except for the very high dose of 10 μM): significant decrease
number of Celltox-positive cells ([1]; beginning at the 0.245 μM dose): concomitant increase
cleaved/active caspase-3 (cleaved/active caspase-3; c-Jun knocked-down by siRNA): not detectable
cleaved/active caspase-3 (cleaved/active caspase-3; scramble siRNA): appearance of cleaved/active caspase-3
caspase-9 activity (caspase-9): significant increase
caspase-3/7 activity (caspase-3/7): significant increase
cell morphology / apoptotic cells ([2]; 48 hours, AICAR at 0.2 mM): only minimal effect
effect on cell growth ([2]; TRX-E-002-1 25 ng/ml, mono therapies or combination): minimal effect
